Assay: Anticancer human tumor 997537-175-T-J1-PDC patient-derived colon adenocarcinoma cell line growth inhibition [POLQ]
Conditions: 997537-175-T-J1-PDC complex spheroid viability, combination with POLQ inhibitors; for IC50: curve of first compound; for viability, T/C: stronger effect = lower value
Summary of the method: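 Complex spheroid viability model combining PDC tumour cells with endothelial (HUVEC) and MSC stromal cells. Novobiocin, ART-558 or RP6685 were tested singly and in combination with standard and investigational anticancer drugs. Each was titrated in half-log steps from near clinical Cmax, or from 10 microM where Cmax was unknown.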
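Further: luminescence signal used as a surrogate for viable cells; spheroids exposed to drugs for seven days before readout.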

CC(=O)O[C@H]1C(=O)[C@@]2(C)[C@H]([C@H](OC(=O)c3ccccc3)[C@]3(O)C[C@H](OC(=O)[C@H](O)[C@@H](NC(=O)c4ccccc4)c4ccccc4)C(C)=C1C3(C)C)[C@]1(OC(C)=O)CO[C@@H]1C[C@@H]2O + Cc1cccc(N(C)C(=O)C2C(O)CCN2c2nc(C)cc(C(F)(F)F)c2C#N)c1
IC50 (second compound 0.0316 µM): < 0.00949 µM
IC50 (second compound 0.1 µM): < 0.00949 µM
IC50 (second compound 0.316 µM): 0.0322 µM
IC50 (second compound 1 µM): < 0.00949 µM
IC50 (second compound 3.16 µM): 0.0209 µM
IC50 (second compound 10 µM): < 0.00949 µM
viability, T/C (second compound 0.0316 µM, first compound 0.00949 µM): 56%
viability, T/C (second compound 0.0316 µM, first compound 0.03 µM): 32.5%
viability, T/C (second compound 0.0316 µM, first compound 0.0949 µM): 16.2%
viability, T/C (second compound 0.0316 µM, first compound 0.3 µM): 20.3%
viability, T/C (second compound 0.0316 µM, first compound 0.949 µM): 35.2%
viability, T/C (second compound 0.0316 µM, first compound 3 µM): 41.5%
viability, T/C (second compound 0.1 µM, first compound 0.00949 µM): 53.7%
viability, T/C (second compound 0.1 µM, first compound 0.03 µM): 39%
viability, T/C (second compound 0.1 µM, first compound 0.0949 µM): 45.4%
viability, T/C (second compound 0.1 µM, first compound 0.3 µM): 32.4%
viability, T/C (second compound 0.1 µM, first compound 0.949 µM): 41.5%
viability, T/C (second compound 0.1 µM, first compound 3 µM): 35.5%
viability, T/C (second compound 0.316 µM, first compound 0.00949 µM): 54.1%
viability, T/C (second compound 0.316 µM, first compound 0.03 µM): 51.6%
viability, T/C (second compound 0.316 µM, first compound 0.0949 µM): 30.1%
viability, T/C (second compound 0.316 µM, first compound 0.3 µM): 29.8%
viability, T/C (second compound 0.316 µM, first compound 0.949 µM): 26.2%
viability, T/C (second compound 0.316 µM, first compound 3 µM): 20.3%
viability, T/C (second compound 1 µM, first compound 0.00949 µM): 41%
viability, T/C (second compound 1 µM, first compound 0.03 µM): 32.3%
viability, T/C (second compound 1 µM, first compound 0.0949 µM): 28.3%
viability, T/C (second compound 1 µM, first compound 0.3 µM): 39.7%
viability, T/C (second compound 1 µM, first compound 0.949 µM): 34.3%
viability, T/C (second compound 1 µM, first compound 3 µM): 31.9%
viability, T/C (second compound 3.16 µM, first compound 0.00949 µM): 79.5%
viability, T/C (second compound 3.16 µM, first compound 0.03 µM): 38.5%
viability, T/C (second compound 3.16 µM, first compound 0.0949 µM): 20.8%
viability, T/C (second compound 3.16 µM, first compound 0.3 µM): 40.2%
viability, T/C (second compound 3.16 µM, first compound 0.949 µM): 31.5%
viability, T/C (second compound 3.16 µM, first compound 3 µM): 34.2%
viability, T/C (second compound 10 µM, first compound 0.00949 µM): 48.1%
viability, T/C (second compound 10 µM, first compound 0.03 µM): 38.8%
viability, T/C (second compound 10 µM, first compound 0.0949 µM): 47.5%
viability, T/C (second compound 10 µM, first compound 0.3 µM): 30.6%
viability, T/C (second compound 10 µM, first compound 0.949 µM): 26.2%
viability, T/C (second compound 10 µM, first compound 3 µM): 53.9%

Reference: PubChem BioAssay AID1963825 (Molecular Pharmacology Branch, DTP, NCI, 2024)
